# Source: patent EP0819136B1, “MDP DERIVATIVES AND CONJUGATES HAVING HAEMATOPOIETIC FUNCTION STIMULATING ACTIVITY, AND COMPOSITIONS CONTAINING SAME” (VACSYN S.A., priority 1995, dated 1996)
# Legend:
# [1] = system: leucocytes circulants normaux (majoritairement neutrophiles et lymphocytes) et immatures (myélocytes); test: Circulating blood cell counts in mice after 4 consecutive days of i.v. Muradimétide alone (Example 1); assay type: in vivo, souris; details: for Nbre de Leucocytes / Nbre de Lymphocytes / Nbre de Myélocytes / Nbre de Neutrophiles: Muradimétide 25 mg/kg i.v., 4 consecutive days
# Procedure: Le tableau 1 ci-dessous représente les numérations des leucocytes, neutrophiles, lymphocytes et myélocytes en fonction du temps après traitement par le Muradimétide seul administré à la dose de 25 mg/kg. Le traitement est effectué pendant 4 jours consécutifs par injection intraveineuse.
# Effet de 4 jours de traitement consécutifs des souris par voie veineuse avec le Muradimétide (25 mg/kg) sur les modifications du nombre de leucocytes circulants normaux (majoritairement neutrophiles et lymphocytes) et immatures (myélocytes).
# [2] = system: CSH; test: Circulating CSH at different stages of differentiation, colony cultures of blood mononuclear cells from treated mice (Example 7, figures 14a-d); assay type: in vivo, souris (10 Balb/c par groupe); details: once daily for three consecutive days, MDM 25 mg/kg with or without AZT 50 mg/kg; blood collected 24 h after the last administration
# Excerpt: Ces expériences ont pour objet la mise en évidence des différentes populations de CSH présentes dans le sang circulant.
# Ont été recherchés les stades suivants depuis les plus primitifs décelables en culture et qui ne présentent aucun signe de différenciation comme les CFAC (Coblestone Area Forming Cells) et LTC-IC (Long Term Culture - Initiating Cells) jusqu'au GM-CFU (Granulocyte Macrophage - Colony Forming Units) en passant par des stades intermédiaires comme les HPP et LPP-CFU (respectivement High Proliferating Potential and Low Proliferating Potential CFU). Dans tous les cas, les conditions de cultures, en particulier leur durée, ont été choisies pour permettre une détection optimale des différentes populations considérées.
# Ont été comparés pour cette étude l'effet de l'injection de saline (X-), d'AZT à 50 mg/kg, du MDM à 25 mg/kg et le mélange des deux sur le nombre de CSH cirulants. Les cellules mononucléaires après purification ont été cultivées pendant 5 jours pour dénombrer les GM-UFC (pour granulocytes - macrophages unités formant colonies), pendant 28 jours pour dénombrer les unités formant colonies à bas potentiel prolifératif (LPP) et les UFC à haut potentiel prolifératif (HPP). Les CAFC ont été dénombrés après 14 jours de culture. Les LTC-IC après 28 jours. Les résultats sont présentés sur les figures 14a, 14b, 14c et 14d respectivement. […]
# [3] = system: neutrophiles circulants, leucocytes circulants, monocytes circulants, myélocytes circulants; test: Comparison of Muradimétide and GM-CSF on circulating cell counts after i.v. AZT (Example 9, figures 4-7); assay type: in vivo, souris Swiss femelles; details: AZT 40 mg/kg i.v. days 0-3; Muradimétide 25 mg/kg or mGM-CSF 125 µg/kg i.v. 4 h before AZT
# Excerpt: La figure 4 représente les effets comparés du Muradimétide et du rmGM-CSF (recombinant mouse GM-CSF) sur la numération des neutrophiles circulants après administration d'AZT.
# La figure 5 représente la même comparaison sur la numération des leucocytes circulants.
# La figure 6 représente la même comparaison sur la numération de monocytes circulants.
# La figure 7 représente la même comparaison sur la numération des myélocytes circulants.
# Lorsque les souris ayant reçu un traitement par l'AZT sont traitées par du GM-SCF dans les mêmes conditions que celles utilisées pour le Muradimétide, les comptages de leucocytes et de neutrophiles ne présentent pas d'augmentation contrairement à ce qui est observé lorsque la combinaison AZT-Muradimétide est utilisée. Par contre, on observe une augmentation du nombre des monocytes. Les figures 4, 5, 6, et 7 indiquent l'effet d'un traitement des souris avec du Muradimétide ou avec du mGM-CSF sur les changements respectivement dans les neutrophiles circulants, dans les leucocytes circulants ou dans les monocytes circulants ou dans les myélocytes circulants après une administration intraveineuse d'AZT.
# Les souris Swiss femelles ont été traitées par voie intra-veineuse avec 40 mg par kg d'AZT aux jours 0, 1, 2 et 3. […]
compound,measurement,setting,value
"COC(=O)CC[C@@H](NC(=O)[C@H](C)NC(=O)[C@@H](C)O[C@H]1[C@H](O)[C@@H](CO)OC(O)[C@@H]1NC(C)=O)C(=O)OC (stereo partly drawn) [Muradimétide, Nac-Mur-L-Ala-D-Glu-[OCH3]-OCH3]",Nbre de Leucocytes,[1]; day 0,50 ± 14° x 10^5/ml
same,Nbre de Lymphocytes,[1]; day 0,38±12 x 10^5/ml
same,Nbre de Myélocytes,[1]; day 0,7 ± 6 x 10^4/ml
same,Nbre de Neutrophiles,[1]; day 0,11±3 x 10^5/ml
same,Nbre de Leucocytes,[1]; day 2,52±12 x 10^5/ml
same,Nbre de Lymphocytes,[1]; day 2,41 ± 17 x 10^5/ml
same,Nbre de Myélocytes,[1]; day 2,8±8 x 10^4/ml
same,Nbre de Neutrophiles,[1]; day 2,10±3 x 10^5/ml
same,Nbre de Leucocytes,[1]; day 3,52 ± 17 x 10^5/ml
same,Nbre de Lymphocytes,[1]; day 3,35 ± 13 x 10^5/ml
same,Nbre de Myélocytes,[1]; day 3,40±5 x 10^4/ml
same,Nbre de Neutrophiles,[1]; day 3,13 ± 5 x 10^5/ml
same,Nbre de Leucocytes,[1]; day 4,52 ± 15 x 10^5/ml
same,Nbre de Lymphocytes,[1]; day 4,34 ± 8 x 10^5/ml
same,Nbre de Myélocytes,[1]; day 4,72 ± 27 x 10^4/ml
same,Nbre de Neutrophiles,[1]; day 4,12 ± 4 x 10^5/ml
same,Nbre de Leucocytes,[1]; day 7,50±13 x 10^5/ml
same,Nbre de Lymphocytes,[1]; day 7,38±10 x 10^5/ml
same,Nbre de Myélocytes,[1]; day 7,4 ± 4 x 10^4/ml
same,Nbre de Neutrophiles,[1]; day 7,12±4 x 10^5/ml
same,nombre de myélocytes circulants (result in words),"[1]; Muradimétide alone 25 mg/kg i.v., days 3 and 4",augmentation du nombre de myélocytes circulants qui est hautement significative
same,"nombre de CSH circulants (GM-CFU, LPP-CFU, HPP-CFU)",[2],apparaît clairement
same,comptages de leucocytes et de neutrophiles,[3],effet nettement marqué
same,élévation / mobilisation des CSH dans le sang (myélocytes circulants),[3],très forte élévation
